According to patent publication US20150005379A1, “[…] METHOD” (PeroxyChem LLC, priority 2013, published 2015):

System: fecal coliform
Experiment: Fecal coliform count of wastewater at the contact chamber exit after peracetic acid dosing
Assay type: cell-based
Details: post-sand filter wastewater, 60 min average contact time
Method: Wastewater was diverted post-sand filter treatment at a wastewater treatment plant into a rectangular weir disinfectant contact chamber. The flow rate of wastewater through the contact chamber was set at seven gallons per minute; the average contact time in the contact chamber was 60 minutes.
VigorOx® WWT peracetic acid (FMC Corporation; 15% peracetic acid, 23% hydrogen peroxide by weight) was dosed into the wastewater through Control Corporation lab grade pumps. In Comparative Experiment A, the PAA was introduced just prior to the wastewater's entrance into the contact chamber at a rate of 6.1 ppm. In Example 1, PAA was introduced just prior to the wastewater's entrance into the contact chamber at a rate of 1.5 ppm; and additionally at a point 50 minutes after the wastewater's entry into the contact chamber at a rate of 4.5 ppm. The fecal coliform count of the wastewater was measured at the point the wastewater exited from the contact chamber.

CC(=O)OO [PAA, peracetic acid]
samples tested with no-detectable readings of coliform bacteria (Comparative Experiment A: PAA added at a sole point just prior to entrance into contact chamber, 6.1 ppm): about 35%
samples tested with no-detectable readings of coliform bacteria (Example 1: PAA added at two points, 1.5 ppm just prior to entrance and 4.5 ppm at 50 minutes after entry): about 50%
